Values quoted from earlier work, collected in article PMC7463651, “Phase I/Ib Study of Tenalisib (RP6530), a Dual PI3K δ/γ Inhibitor in Patients with Relapsed/Refractory T-Cell Lymphoma” (Cancers, 2020).

Tested on: PI3K δ/γ
Details: cited from earlier work

CC[C@H](Nc1ncnc2[nH]cnc12)c1oc2ccccc2c(=O)c1-c1cccc(F)c1 [Tenalisib]
Inhibitory potency (PI3K δ/γ): nanomolar
Selectivity over α and β PI3K isoforms: several fold
